Data set [1] in a line: Previous PK studies of APT-1011 (food effect, QD vs BID). In kind it is in vivo, human. The note with it: single-dose administration.
For data set [2] the following is noted: oral; cited from earlier work.
The conditions of data set [3]: in vivo. As for the experimental part:
Incidence of treatment-emergent Adverse Events (AEs), AEs leading to withdrawal, and Serious Adverse Events (SAEs) grouped by system organ class (SOC) were calculated as needed. Clinically significant abnormal values for clinical laboratory, AM cortisol (≤138 nmol/L), urinalysis, vital signs, and electrocardiogram (ECG) findings were measured as needed.
A total of 24 subjects were enrolled and randomized to one of six sequences to receive each of the three treatments over the three periods with a 7-day washout between doses.
C. […] These subjects continued fasting for at least 4 hours post-dose. • Subjects on the “Fed” treatment (Treatment B) began a high-fat breakfast 30 minutes after an overnight fast of at least 10 hours. […] Subjects were administered 6.0 mg of ATP-1011 immediately prior to bedtime (4 hours following the standard meal).
Randomization (Day 1): Subjects were randomized to one of six sequences (See Table 15) to receive a single dose of each treatment over three periods, with a 7-day washout between doses.
Treatment Periods: For each period, subjects were in-patients for 5 days (Days 0-4, Days 7-11, Days 14-18) with PK samples collected over 72 hours following each dose. Subjects were checked-in to the CRU the evening prior to each dosing (Day 0, 7, and 14) and received treatment according to the sequence on which they were randomized on Day 1. […] All meals (AM and 4 hours prior to bedtime) were standardized for all subjects and all periods. Subjects completed these meals within 30 minutes. […] Subjects dosed HS followed the same PK schedule with PK samples scheduled relative to the bedtime dose.
Pharmacokinetics: Derived plasma-PK-parameter descriptive statistics were summarized by treatment. […] Additional comparisons were assessed between HS dosing and Fed and Fasted administration.
The following PK parameters were estimated by noncompartmental methods from plasma samples. Below limit of quantitation concentrations were treated as zero for all PK analyses. All deviations from the scheduled sampling time of 2 minutes or more were taken into consideration for evaluation of the PK parameters.
The trapezoidal rule was used to estimate the area under the curve (linear trapezoidal linear interpolation) and the terminal phase were estimated by maximizing the coefficient of determination estimated from the log-linear regression model. However, disposition parameters were not estimated for individual concentration-time profiles where the terminal log-linear phase cannot be reliably characterized.
Food Effect Analysis: The 90% confidence interval for the exponential of the difference in LSmeans between B (fed) and A (fasted) was calculated for the ln-transformed parameters (Test to Reference ratio of geometric LSmeans).
HS vs Fasted Analysis: The 90% confidence interval for the exponential of the difference in LSmeans between C (HS) and A (fasted) was calculated for the ln-transformed parameters (Test to Reference ratio of geometric LSmeans).
HS vs Fed Analysis: The 90% confidence interval for the exponential of the difference in LSmeans between C (HS) and B (fed) was calculated for the ln-transformed parameters (Test to Reference ratio of geometric LSmeans).
Treatments Administered: Study drug was administered by qualified study staff only in accordance with the procedures described in this protocol. […] All subjects were instructed to take the study drug tablet orally without water or other liquids. […]

Molecules are shown by their SMILES.

As to `CCC(=O)O[C@]1(C(=O)SCF)[C@H](C)C[C@H]2[C@@H]3C[C@H](F)C4=CC(=O)C=C[C@]4(C)[C@@]3(F)[C@@H](O)C[C@@]21C` [FP, Fluticasone propionate], in data set [1], the “between-subject variability (CV % Geo mean) of FP AUC(0-24h)” value is on record as above 55%. Moreover, the expected systemic bioavailability in data set [2] is given as around 1%. For the same molecule, in data set [3] (human, 6 mg), the “AUC0-24, geometric LSmean” value was determined as 0.367351 ng·h/mL; the “AUCinf, geometric LSmean” value was 0.915302 ng·h/mL; the “AUClast, geometric LSmean” value was found to be 0.789234 ng·h/mL; the “Cmax, geometric LSmean” value came to 0.0313 ng/mL. Moreover, the “maximum peak exposure, lower than morning-fast” value in data set [3] was determined as 19%.
